Patent publication US20100190849A1, “Novel Clerodanes and Methods for Repelling Arthropods” (priority 2006, published 2010)
Marks after values point to notes of the source that are not given here.

Assays:
Assay type in all cases: in vivo
[1] = tested on: Aedes aegypti; experiment: K & D module mosquito anti-biting (repellent) bioassay
Protocol: Insects: Ae. aegypti(L.) (red eye Liverpool strain) and An. stephensi Liston used in the study were from colonies maintained at the Walter Reed Army Institute of Research, Silver Spring, Md. […] Adults were maintained in a photoperiod of 12:12 (L:D) h at 27° C. and 80% RH with cotton pads moistened with 10% aqueous sucrose solution. Mated females were 5-15 d old when they were used in bioassays. Ae. aegypti females had access only to water 24 h and neither food nor water for another 24 h before testing. An. stephensi females were provided with water alone 24 h before testing.
Routinely, a six-celled K & D module containing five mosquitoes/cell was positioned over cloth treatments covering the six blood-membrane wells, and trap doors of the K&D modules were opened to expose the treatments to the sets of mosquitoes. After a 3 minute exposure, the number of mosquitoes biting through cloth treatments in each cell was recorded and mosquitoes were prodded back into the cells. […] Experiments were replicated 12, 18, 32, or 56 times. Thus, 60, 90, 160. or 280 mosquitoes were tested against each treatment depending on the experiment, and the proportion of mosquitoes not biting for each treatment was calculated. For each experiment, conducted in different time periods, logistic regression was used to make two sets of one degree-of-freedom contrasts (t-tests): treatments vs. control and treatments vs. SS220 for anti-biting activity within each experiment. The level of significance was set at P=0.05. In all, we conducted 8 biological experiments, and all experiments used Ae. aegypti as the test mosquito with exception of Experiment 7 which used An. stephensi.
Each experiment was replicated 18 times.
Experiments 3, 4, and 5: In each of these experiments, chromatographic fractions of essential oil at their respective percentage compositions of 100 μg essential oil/cm^2 cloth, 100 μg unfractionated essential oil/cm^2 cloth, 25 nmol SS-220/cm^2 cloth and control were compared for mosquito anti-biting activity. Each experiment was replicated 18 times.
Experiments 6 and 7: These experiments compared the anti-biting activities of SS-220, and plant-isolated callicarpenal, humulene epoxide II, intermedeol and spathulenol at 25 nmol compound/cm^2 cloth versus control against Ae. aegypti and An. stephensi, respectively. Experiment 6 was replicated 32 times and 7 had 56 replicates
The percentage composition of the mixture was a normalized percentage of active components in C. japonica essential oil based upon GC-MS analysis total ion Area % analysis based on largest peaks. Other treatments in the experiment were SS220, callicarpenal, intermedeol, and spathulenol each at 25 nmol/cm^2 cloth versus control.

[2] = tested on: Aedes aegypti; experiment: Total mosquito toxic knockdown after K & D module exposure (Experiment 8); conditions: Exp. 8, 25 nmol/cm^2 cloth; for Total Knock down 6 min: dead mosquitoes 6 min post-treatment exposure; for Total knock down 1 hr: dead mosquitoes 1 hr post-treatment exposure; for Total knock down 24 hr: dead mosquitoes 24 hr post-treatment exposure
From the text: Plant extracts, fractions, or isolated pure plant derived compounds in 95% ethanol solution were each randomly applied to six-4×5 cm areas of organdy cloth and positioned over the membrane-covered blood. A replicate consisted of six treatments: four test chemicals or extract fractions, 95% ethanol treated cloth as control and unfractionated plant extract or a standard repellent compound, (1S, 2′S)-2-methylpiperidinyl-3-cyclohexen-1-carboxamide (SS220) at 25 nmol/cm^2 cloth. The 25 nmol SS220/cm^2 cloth dose was used as a standard, because it was known from human volunteer and in vitro assays to consistently suppress mosquito biting by 80% or more compared to controls in replicated assays (Klun, J. A., et al., Journal of the American Mosquito Control Association, 21: 64-70 (2005)). […] Routinely, a six-celled K & D module containing five mosquitoes/cell was positioned over cloth treatments covering the six blood-membrane wells, and trap doors of the K&D modules were opened to expose the treatments to the sets of mosquitoes. After a 3 minute exposure, the number of mosquitoes biting through cloth treatments in each cell was recorded and mosquitoes were prodded back into the cells. In Experiment 8, we retained all mosquitoes in their respective K&D module cells, each fitted with a water-moist piece of cotton, and observed the mosquitoes for total mosquito toxic knockdown at 6 min, 1 hr, and 24 hr post-treatment exposure. Experiments were replicated 12, 18, 32, or 56 times. Thus, 60, 90, 160. or 280 mosquitoes were tested against each treatment depending on the experiment, and the proportion of mosquitoes not biting for each treatment was calculated. For each experiment, conducted in different time periods, logistic regression was used to make two sets of one degree-of-freedom contrasts (t-tests): treatments vs. control and treatments vs. SS220 for anti-biting activity within each experiment. The level of significance was set at P=0.05. In all, we conducted 8 biological experiments, and all experiments used Ae. aegypti as the test mosquito with exception of Experiment 7 which used An. stephensi.
Experiment 8: This experiment (12 replicates) compared the antibiting activities of a mixture (25 nmol/cm^2 cloth) of 11.5% callicarpenal, 47.1% intermedeol, and 41.4% spathulenol. The percentage composition of the mixture was a normalized percentage of active components in C. japonica essential oil based upon GC-MS analysis total ion Area % analysis based on largest peaks. Other treatments in the experiment were SS220, callicarpenal, intermedeol, and spathulenol each at 25 nmol/cm^2 cloth versus control. In addition to measurement of anti-biting activity, the number of dead mosquitoes observed at three time intervals were recorded for the six treatments.

[3] = tested on: hybrid (S. invicta×S. richteri); experiment: Two-choice digging bioassay, head-to-head against octanoic acid; conditions: 25.00 ppm
Protocol: The repellency of the two terpenoids, callicarpenal and intermedeol, against workers of red imported fire ants, Solenopsis invicta Buren, black imported fire ants, Solenopsis rickeri Forel, and a hybrid of these two species was evaluated using multiple-choice digging bioassays (Tables 9 & 10). […] Callicarpenal and intermedeol were compared with octanoic acid, a known fire ant repellant, at the 25.00 ppm level using two-choice digging bioassays (FIGS. 3 and 4).
Head-to-head comparison on repellency of callicarpenal and intermedeol against octanoic acid: The bioassay apparatus was similar as described above, except a smaller Petri dish (8.7×2.3 cm) was used and only two choices were presented: one was sand treated with callicarpenal or intermedeol and the other with octanoic acid. Two choices were opposite each other across the center of the Petri dish and each was 3.0 cm away from the center. All compounds were tested at a 25.00 ppm level. Sand preparation was similar as described above. Ants from the same colonies as above were used in this experiment. There were five replications for each pair of comparisons. A paired t-test (critical P-value=0.05) was used to compare the mean amount of sand removed between two tubes.

[4] = Exp. 6, 25 nmol compound/cm^2 cloth, 32 replicates
[5] = Exp. 8, 25 nmol/cm^2 cloth, 12 replicates
[6] = Experiment 6, 25 nmol compound/cm^2 cloth
[7] = Experiment 8, 25 nmol/cm^2 cloth

Row | Structure (SMILES) | Proportion Not Biting [1, 4] | Proportion Not Biting [1, 5] | repellent activity (in words) [1, 6] | repellent activity (in words) [1, 7] | Proportion Not Biting ([1]; Table 7, Example 2, synthetic compounds, dose not given) | Proportion Not Biting ([1]; Table 8, Example 3, synthetic compounds, dose not given) | Total Knock down 6 min [2] | Total knock down 1 hr [2] | Total knock down 24 hr [2] | repellency compared with octanoic acid (in words) ([3]; one hybrid colony, FIG. 3) | repellency compared with octanoic acid (in words) ([3]; the other hybrid colony, FIG. 3) | repellency compared with octanoic acid (in words) ([3]; all hybrid colonies, FIG. 4)
1 | CC1=CCC[C@@H]2[C@@](C)(CC=O)[C@H](C)CC[C@@]12C [callicarpenal, 13,14,15,16-tetranorclerod-3-en-12-al] | 0.70^b | 0.73^a | significant activity | high repellent activity that was comparable to SS220 | 0.70^b | 0.73^b | 0 | 1 | 5 | significantly greater repellency than octanoic acid | no significant difference | –
2 | C=C(C)C1CCC2(C)CCCC(C)(O)C2C1 [intermedeol, (4S,5S,7R,10S)-eudesm-11-en-4-ol] | 0.70^b | 0.62^c | significant activity | high repellent activity that was comparable to SS220 | – | – | 1 | 1 | 2 | – | – | significantly greater repellency than octanoic acid
